Earlier results as cited in patent US5668134A, “Method for preventing or reducing photosensitivity and/or phototoxicity reactions to medications” (priority 1994, dated 1997).

Tested on: skin
Conditions: Table 1; cited from earlier work

Structure (SMILES) | Action Spectrum | Type of Photoreaction
CNC1=Nc2ccc(Cl)cc2C(c2ccccc2)=[N+]([O-])C1 [Chlordiazepoxide] | 290-360 nm | Photoallergic
CN(C)N=Nc1[nH]cnc1C(N)=O [DTIC] |  | Phototoxic
C=C[C@H]1C[N@@]2CC[C@H]1C[C@@H]2[C@@H](O)c1ccnc2ccc(OC)cc12 [Quinidine] |  | Photoallergic
O=c1[nH]cc(F)c(=O)[nH]1 [fluorouracil, 5-fluoro-2,4 (1H,3H)-pyrimidinedione] |  | Phototoxic
CN(Cc1cnc2nc(N)nc(N)c2n1)c1ccc(C(=O)N[C@@H](CCC(=O)O)C(=O)O)cc1 [methotrexate] |  | Phototoxic
CCn1cc(C(=O)O)c(=O)c2ccc(C)nc21 [nalidixic acid] | 320-400 nm | 
C=C[C@H]1C[N@@]2CC[C@H]1C[C@H]2[C@H](O)c1ccnc2ccc(OC)cc12 [quinine] |  | Photoallergic
CCCCNC(=O)NS(=O)(=O)c1ccc(C)cc1 [tolbutamide] | 290-360 nm | 
CC[C@]1(O)C[C@@H]2CN(CCc3c([nH]c4ccccc34)[C@@](C(=O)OC)(c3cc4c(cc3OC)N(C)[C@H]3[C@@](O)(C(=O)OC)[C@H](OC(C)=O)[C@]5(CC)C=CCN6CC[C@]43[C@@H]65)C2)C1 [vinblastine] |  | Phototoxic

Same assay, conditions: cited from earlier work

Structure (SMILES) | Action Spectrum
C=C[C@H]1C[N@@]2CC[C@H]1C[C@@H]2[C@@H](O)c1ccnc2ccc(OC)cc12 [Quinidine] | 320-400 nm
CCCNC(=O)NS(=O)(=O)c1ccc(Cl)cc1 [chlorpropamide] | 290-360 nm
COC1=CC(=O)C[C@@H](C)[C@]12Oc1c(Cl)c(OC)cc(OC)c1C2=O [griseofulvin] | 320-400 nm
C=C[C@H]1C[N@@]2CC[C@H]1C[C@H]2[C@H](O)c1ccnc2ccc(OC)cc12 [quinine] | 320-400 nm
